Measured values reported in patent US20240246945A1, “NOVEL COMPOUND FOR CROP PROTECTANT” (LG CHEM, LTD., priority 2010, published 2024).

What was measured:
[1] = tested on: Myzus persicae (Sulzer); assay: Insecticidal Activity Test 1 against Myzus persicae (Sulzer), foliar spray on potted peppers, approximately 5 ppm; assay type: in vivo; details: in Capsicum, 120 h, approximately 5 ppm drug solution in water, counted on day 5 after spraying, read-out: mortality rate rating
Source text: Insecticidal Activity Test 1 Against Myzus persicae (Sulzer)
(§1) Peppers were planted in plastic pots with a diameter of 8 cm and a height of 8 cm, Myzus persicae (Sulzer) was reproduced therein, and then the number of Myzus persicae (Sulzer) in each pot was investigated. Some of the compounds prepared in the examples were selected, the compound was dispersed in water to be diluted to approximately 5 ppm, thereby preparing a drug solution.
The drug solution was sprayed onto the foliage of the peppers planted in the pots using a hand sprayer and air-dried, and the pots were stored in a green house.
(§2) On day 5 after the drug spraying, the number of Myzus persicae (Sulzer) parasitic on each pepper was counted, a mortality rate was calculated from the following formula, and the rating of each compound was investigated.
(§3) [formula] • A rating: 90% to 100% mortality • B rating: 80% or more and less than 90% mortality • C rating: less than 80% mortality

[2] = tested on: Myzus persicae (Sulzer); assay: Insecticidal Activity Test 2 against Myzus persicae (Sulzer), foliar spray on potted peppers, approximately 25 ppm; assay type: in vivo; details: in Capsicum, 120 h, approximately 25 ppm drug solution in water, counted on day 5 after spraying, read-out: mortality rate rating
Source text: Insecticidal Activity Test 2 Against Myzus persicae (Sulzer)
as §1, with “25” for “5”
The drug solution was sprayed onto the foliage of the peppers planted in the pots and air-dried, and the pots were stored in a green house.
as §2, §3

Row | SMILES | mortality at 5 µg/mL [1] [%] | mortality at 25 µg/mL [2] [%]
1 | CCN(C(=O)c1cnc(-c2noc(C)n2)n1C)c1cccnc1 [Ia-1-1-1, N-ethyl-1-methyl-2-(5-methyl-1,2,4-oxadiazol-3-yl)-N-(pyridin-3-yl)-1H-imidazole-5-carboxamide] | 90 to 100 | –
2 | CCN(C(=O)c1cnc(-c2noc(C(F)F)n2)n1C)c1cccnc1 [Ia-1-1-2, 2-(5-(difluoromethyl)-1,2,4-oxadiazol-3-yl)-N-ethyl-1-methyl-N-(pyridin-3-yl)-1H-imidazole-5-carboxamide] | – | 90 to 100
3 | CCN(C(=O)c1cnc(-c2noc(C(C)(C)C)n2)n1C)c1cccnc1 [Ia-1-1-5, 2-(5-(tert-butyl)-1,2,4-oxadiazol-3-yl)-N-ethyl-1-methyl-N-(pyridin-3-yl)-1H-imidazole-5-carboxamide] | – | 90 to 100
4 | CCN(C(=O)c1cnc(-c2noc(C(C)C)n2)n1C)c1cccnc1 [Ia-1-1-6, N-ethyl-2-(5-isopropyl-1,2,4-oxadiazol-3-yl)-1-methyl-N-(pyridin-3-yl)-1H-imidazole-5-carboxamide] | – | 90 to 100
5 | CCCc1nc(-c2ncc(C(=O)N(CC)c3cccnc3)n2C)no1 [Ia-1-1-7, N-ethyl-1-methyl-2-(5-propyl-1,2,4-oxadiazol-3-yl)-N-(pyridin-3-yl)-1H-imidazole-5-carboxamide] | – | 90 to 100
6 | CCc1nc(-c2ncc(C(=O)N(CC)c3cccnc3)n2C)no1 [Ia-1-1-8, N-ethyl-2-(5-ethyl-1,2,4-oxadiazol-3-yl)-1-methyl-N-(pyridin-3-yl)-1H-imidazole-5-carboxamide] | 90 to 100 | –
7 | CCN(C(=O)c1cnc(-c2noc(C3CC3)n2)n1C)c1cccnc1 [Ia-1-1-12, 2-(5-cyclopropyl-1,2,4-oxadiazol-3-yl)-N-ethyl-1-methyl-N-(pyridin-3-yl)-1H-imidazole-5-carboxamide] | 90 to 100 | –
8 | CCN(C(=O)c1cnc(-c2noc(CC3CC3)n2)n1C)c1cccnc1 [Ia-1-1-16, 2-(5-(cyclopropylmethyl)-1,2,4-oxadiazol-3-yl)-N-ethyl-1-methyl-N-(pyridin-3-yl)-1H-imidazole-5-carboxamide] | – | 90 to 100
9 | CCN(C(=O)c1cnc(-c2noc(-c3ccccc3)n2)n1C)c1cccnc1 [Ia-1-1-21, N-ethyl-1-methyl-2-(5-phenyl-1,2,4-oxadiazol-3-yl)-N-(pyridin-3-yl)-1H-imidazole-5-carboxamide] | – | 90 to 100
10 | CCN(C(=O)c1cnc(-c2noc(-c3cocn3)n2)n1C)c1cccnc1 [Ia-1-1-22, N-ethyl-1-methyl-2-(5-(oxazol-4-yl)-1,2,4-oxadiazol-3-yl)-N-(pyridin-3-yl)-1H-imidazole-5-carboxamide] | – | 90 to 100
11 | CCN(C(=O)c1cnc(-c2noc(-c3cnco3)n2)n1C)c1cccnc1 [Ia-1-1-23, N-ethyl-1-methyl-2-(5-(oxazol-5-yl)-1,2,4-oxadiazol-3-yl)-N-(pyridin-3-yl)-1H-imidazole-5-carboxamide] | – | 90 to 100
12 | CCN(C(=O)c1cnc(-c2noc(-c3ccccc3F)n2)n1C)c1cccnc1 [Ia-1-1-24, N-ethyl-1-methyl-2-(5-(2-fluorophenyl)-1,2,4-oxadiazol-3-yl)-N-(pyridin-3-yl)-1H-imidazole-5-carboxamide] | – | 90 to 100
13 | CCN(C(=O)c1cnc(-c2noc(C3CCOCC3)n2)n1C)c1cccnc1 [Ia-1-1-25, N-ethyl-1-methyl-N-(pyridin-3-yl)-2-(5-(tetrahydro-2H-pyran-4-yl)-1,2,4-oxadiazol-3-yl)-1H-imidazole-5-carboxamide] | 90 to 100 | –
14 | CCN(C(=O)c1cnc(-c2noc(N3CCCCC3)n2)n1C)c1cccnc1 [Ia-1-1-26, N-ethyl-1-methyl-2-(5-(piperidin-1-yl)-1,2,4-oxadiazol-3-yl)-N-(pyridin-3-yl)-1H-imidazole-5-carboxamide] | 90 to 100 | –
15 | CCN(C(=O)c1cnc(-c2noc(N3CCCC3)n2)n1C)c1cccnc1 [Ia-1-1-27, N-ethyl-1-methyl-N-(pyridin-3-yl)-2-(5-(pyrrolidin-1-yl)-1,2,4-oxadiazol-3-yl)-1H-imidazole-5-carboxamide] | 90 to 100 | –
16 | CCN(C(=O)c1cnc(-c2noc(-c3cccnc3)n2)n1C)c1cccnc1 [Ia-1-1-30, N-ethyl-1-methyl-N-(pyridin-3-yl)-2-(5-(pyridin-3-yl)-1,2,4-oxadiazol-3-yl)-1H-imidazole-5-carboxamide] | – | 90 to 100

Row | SMILES | mortality at 5 µg/mL [1] [%] | mortality at 25 µg/mL [2] [%]
17 | CCN(C(=O)c1cnc(-c2noc(-c3ccncc3)n2)n1C)c1cccnc1 [Ia-1-1-31, N-ethyl-1-methyl-N-(pyridin-3-yl)-2-(5-(pyridin-4-yl)-1,2,4-oxadiazol-3-yl)-1H-imidazole-5-carboxamide] | – | 90 to 100
18 | CCN(C(=O)c1cnc(-c2noc(NC(C)C)n2)n1C)c1cccnc1 [Ia-1-1-33, N-ethyl-2-(5-(isopropylamino)-1,2,4-oxadiazol-3-yl)-1-methyl-N-(pyridin-3-yl)-1H-imidazole-5-carboxamide] | – | 90 to 100
19 | CCNc1nc(-c2ncc(C(=O)N(CC)c3cccnc3)n2C)no1 [Ia-1-1-35, N-ethyl-2-(5-(ethylamino)-1,2,4-oxadiazol-3-yl)-1-methyl-N-(pyridin-3-yl)-1H-imidazole-5-carboxamide] | – | 90 to 100
20 | CCN(C(=O)c1cnc(-c2noc(N(C)C)n2)n1C)c1cccnc1 [Ia-1-1-36, 2-(5-(dimethylamino)-1,2,4-oxadiazol-3-yl)-N-ethyl-1-methyl-N-(pyridin-3-yl)-1H-imidazole-5-carboxamide] | 90 to 100 | –
21 | CCN(C(=O)c1cnc(-c2noc(N3CCOCC3)n2)n1C)c1cccnc1 [Ia-1-1-37, N-ethyl-1-methyl-2-(5-morpholino-1,2,4-oxadiazol-3-yl)-N-(pyridin-3-yl)-1H-imidazole-5-carboxamide] | – | 90 to 100
22 | CCN(C(=O)c1cnc(-c2noc(N(C(C)=O)C(C)C)n2)n1C)c1cccnc1 [Ia-1-1-38, N-ethyl-2-(5-(N-isopropylacetamido)-1,2,4-oxadiazol-3-yl)-1-methyl-N-(pyridin-3-yl)-1H-imidazole-5-carboxamide] | – | 90 to 100
23 | CCN(C(=O)c1cnc(C2=NOC(C)(C)N2C(=O)C2CC2)n1C)c1cccnc1 [Ia-1-4-3, 2-(4-(cyclopropanecarbonyl)-5,5-dimethyl-4,5-dihydro-1,2,4-oxadiazol-3-yl)-N-ethyl-1-methyl-N-(pyridin-3-yl)-1H-imidazole-5-carboxamide] | – | 90 to 100
24 | CCN(C(=O)c1cnc(C2=NOC(CC)(CC)N2)n1C)c1cccnc1 [Ia-1-4-4, 2-(5,5-diethyl-4,5-dihydro-1,2,4-oxadiazol-3-yl)-N-ethyl-1-methyl-N-(pyridin-3-yl)-1H-imidazole-5-carboxamide] | – | 90 to 100
25 | CCN(C(=O)c1cnc(C2=NOC3(CCOCC3)N2)n1C)c1cccnc1 [Ia-1-4-10, N-ethyl-1-methyl-N-(pyridin-3-yl)-2-(1,8-dioxa-2,4-diazaspiro[4.5]dec-2-en-3-yl)-1H-imidazole-5-carboxamide] | – | 90 to 100
26 | CCN(C(=O)c1cnc(C2=NOC3(CCOCC3)N2C(=O)C2CC2)n1C)c1cccnc1 [Ia-1-4-12, 2-(4-(cyclopropanecarbonyl)-1,8-dioxa-2,4-diazaspiro[4.5]dec-2-en-3-yl)-N-ethyl-1-methyl-N-(pyridin-3-yl)-1H-imidazole-5-carboxamide] | – | 90 to 100
27 | CCN(C(=O)c1cnc(C2=NOC3(CCC(C(F)(F)F)CC3)N2C)n1C)c1cccnc1 (centres unmarked) [Ia-1-4-25, N-ethyl-1-methyl-2-(4-methyl-8-(trifluoromethyl)-1-oxa-2,4-diazaspiro[4.5]dec-2-en-3-yl)-N-(pyridin-3-yl)-1H-imidazole-5-carboxamide] | – | 90 to 100
28 | CCN(C(=O)c1cnc(C2=NOC(c3ccccc3F)N2)n1C)c1cccnc1 (centres unmarked) [Ia-1-4-33, N-ethyl-2-(5-(2-fluorophenyl)-4,5-dihydro-1,2,4-oxadiazol-3-yl)-1-methyl-N-(pyridin-3-yl)-1H-imidazole-5-carboxamide] | – | 90 to 100
29 | CCN(C(=O)c1cnc(C2=NOC(c3cccnc3F)N2)n1C)c1cccnc1 (centres unmarked) [Ia-1-4-34, N-ethyl-2-(5-(2-fluoropyridin-3-yl)-4,5-dihydro-1,2,4-oxadiazol-3-yl)-1-methyl-N-(pyridin-3-yl)-1H-imidazole-5-carboxamide] | – | 90 to 100
30 | CCN(C(=O)c1cnc(C2=NC(C)(C)ON2C)n1C)c1cccnc1 [Ia-1-5-1, N-ethyl-1-methyl-N-(pyridin-3-yl)-2-(2,5,5-trimethyl-2,5-dihydro-1,2,4-oxadiazol-3-yl)-1H-imidazole-5-carboxamide] | – | 90 to 100
31 | CCN(C(=O)c1cnc(C2=NC3(CCN(C(=O)OC(C)(C)C)CC3)ON2C)n1C)c1cccnc1 [Ia-1-5-3, tert-butyl 3-(5-(ethyl(pyridin-3-yl)carbamoyl)-1-methyl-1H-imidazole-2-yl)-2-methyl-1-oxa-2,4,8-triazaspiro[4.5]dec-3-en-8-carboxylate] | – | 90 to 100
32 | CCN(C(=O)c1cnc(C2=NC(c3cccnc3F)ON2C)n1C)c1cccnc1 (centres unmarked) [Ia-1-5-9, N-ethyl-2-(5-(2-fluoropyridin-3-yl)-2-methyl-2,5-dihydro-1,2,4-oxadiazol-3-yl)-1-methyl-N-(pyridin-3-yl)-1H-imidazole-5-carboxamide] | – | 90 to 100
